Assay results: PubChem BioAssay (NCI)
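Assay format: 96-well plates, 48-hour exposure. TGI marks complete inhibition of growth.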

Legend:
Test in all cases: growth of human tumour cells (NCI), 48 h
NCI-H522 lung = tested on: NCI-H522 lung
ACHN renal = tested on: ACHN renal
NCI-H23 lung = tested on: NCI-H23 lung
MDA-N = tested on: MDA-N
UACC-62 melanoma = tested on: UACC-62 melanoma
SK-OV-3 ovarian = tested on: SK-OV-3 ovarian
M14 melanoma = tested on: M14 melanoma
HCC-2998 colon = tested on: HCC-2998 colon
KM12 colon = tested on: KM12 colon
UACC-257 melanoma = tested on: UACC-257 melanoma
RPMI-8226 leukemia = tested on: RPMI-8226 leukemia
CCRF-CEM leukemia = tested on: CCRF-CEM leukemia
SK-MEL-2 melanoma = tested on: SK-MEL-2 melanoma
TK-10 renal = tested on: TK-10 renal
HOP-62 NSCLC = tested on: HOP-62 NSCLC
LOX IMVI melanoma = tested on: LOX IMVI melanoma
COLO 205 colon = tested on: COLO 205 colon
NCI/ADR-RES ovarian = tested on: NCI/ADR-RES ovarian
EKVX NSCLC = tested on: EKVX NSCLC
OVCAR-8 ovarian = tested on: OVCAR-8 ovarian
SW-620 colon = tested on: SW-620 colon
UO-31 renal = tested on: UO-31 renal
T-47D breast = tested on: T-47D breast
K-562 leukemia = tested on: K-562 leukemia
SF-539 CNS = tested on: SF-539 CNS
SNB-75 CNS = tested on: SNB-75 CNS
HCT-15 colon = tested on: HCT-15 colon
MOLT-4 leukemia = tested on: MOLT-4 leukemia
MDA-MB-435 = tested on: MDA-MB-435
SF-295 CNS = tested on: SF-295 CNS
SNB-19 CNS = tested on: SNB-19 CNS
SN12C renal = tested on: SN12C renal
U251 CNS = tested on: U251 CNS
NCI-H226 lung = tested on: NCI-H226 lung
HT29 colon = tested on: HT29 colon
RXF 393 renal = tested on: RXF 393 renal
HL-60(TB) leukemia = tested on: HL-60(TB) leukemia
MCF7 breast = tested on: MCF7 breast
OVCAR-3 ovarian = tested on: OVCAR-3 ovarian
PC-3 prostate = tested on: PC-3 prostate
IGROV1 ovarian = tested on: IGROV1 ovarian
MALME-3M melanoma = tested on: MALME-3M melanoma
SK-MEL-5 melanoma = tested on: SK-MEL-5 melanoma
HOP-92 NSCLC = tested on: HOP-92 NSCLC
MDA-MB-231 breast = tested on: MDA-MB-231 breast
786-0 renal = tested on: 786-0 renal
A498 renal = tested on: A498 renal
A549 NSCLC = tested on: A549 NSCLC
HCT-116 colon = tested on: HCT-116 colon
SK-MEL-28 melanoma = tested on: SK-MEL-28 melanoma
OVCAR-4 ovarian = tested on: OVCAR-4 ovarian
DU-145 prostate = tested on: DU-145 prostate
CAKI-1 renal = tested on: CAKI-1 renal
SF-268 CNS = tested on: SF-268 CNS
SR leukemia = tested on: SR leukemia
OVCAR-5 ovarian = tested on: OVCAR-5 ovarian
HS 578T breast = tested on: HS 578T breast
NCI-H460 lung = tested on: NCI-H460 lung

Measured: TGI

O=C(Nc1c[nH]c(=O)[nH]c1=O)C(Cl)Cl
not listed: SF-268 CNS | SR leukemia | OVCAR-5 ovarian | HS 578T breast | NCI-H460 lung
> 100 µM: all other assays above

CC(C)[C@@H]1CC[C@@H](C)C[C@H]1OC(=O)/C=C1/C2C=CC(O2)C1C(=O)O[C@@H]1C[C@H](C)CC[C@H]1C(C)C (stereo not given in full)
not listed: SK-MEL-2 melanoma
> 100 µM: all other assays above
